Reference: patent publication US5312815A, “Fungicidal (+)-2-(2,4-difluorophenyl)-3-methyl-1-(1H-1,2,4-triazol-1-yl)3-(6-(1H-1, 2,4-triazol-1-yl)pyridazin-3-ylthio) butan-2-ol” (Roussel Morishita Co., Ltd., priority 1992, dated 1994)
≈ marks a conversion by molar mass, not a printed value.

Key:
[1] = tested on: Aspergillus fumigatus Kawasaki strain; assay: In vivo antifungal activity, Aspergillus fumigatus infected mice, oral; set-up: species or system mouse; conditions: 25 mg/kg p.o. twice a day, 4 days; for Mean Survival Days: 10 days observation; for Survival Number on Day 1 / Survival Number on Day 2 / Survival Number on Day 3 / Survival Number on Day 4 / Survival Number on Day 5 / Survival Number on Day 6 / Survival Number on Day 7 / Survival Number on Day 8 / Survival Number on Day 9 / Survival Number on Day 10: of 9 mice
Description: (§1) Asperoillus fumigatus Kawasaki strain having been cultured at 27° C. for 1 week was suspended in physiological saline, and the suspension (3×10^6 cells) was injected into the tail vein of a 4-week-old day male mouse (9 mice per group). Two days before the infection and on the day of the infection, 100 mg/kg of cyclophosphamide was intraperitoneally administered to each animal.
For comparison, compound (A) shown below which is described in EP 0421210A2, fluconazole (FCZ) and itraconazole (ITZ), were used as a comparative substance. Itraconazole was administered in a polyethylene glycol (400) solution. [drawing 4]

[2] = tested on: Aspergillus fumigatus Kawasaki strain; assay: In vivo antifungal activity, Aspergillus fumigatus infected mice, i.v.; set-up: species or system mouse; conditions: 12.5 mg/kg i.v. twice a day, 4 days; for Mean Survival Days / Survival Number on Day 1 / Survival Number on Day 2 / Survival Number on Day 3: Example 1 as G2-β-CyD complex, FCZ in saline; for Mean Survival Days: 10 days observation
Description: as §1, with “Aspergillus fumigatus Kawasaki” for “Asperoillus fumigatus Kawasaki”, “and the cell suspension (3×10^6” for “and the suspension (3×10^6”
(§2) For comparison, fluconazole was used as a comparative substance.

[3] = Toxicity in maintained administration in rats; type: in vivo, Crj:CD male rat; conditions: 100 or 300 mg/kg once a day, 2 weeks, in 0.5% MC
Description: A 6-week-old Crj:CD male rat (6 rats per group) was maintained on the compound of Example 1 or fluconazole suspended in 0.5% MC at a dose of 100 mg/kg or 300 mg/kg once a day for 2 consecutive weeks. Manifestations of toxicity were observed through observation of general signs, body weight measurement, biochemical examination of blood, organ weight measurements, and postmortem examinations.

[4] = tested on: Candida albicans CAA-14 strain; assay: In vivo antifungal activity, Candida albicans infected mice, i.v.; set-up: species or system ICR male mouse; conditions: 5 mg/kg i.v. twice a day, 2 days, Example 1 as G2-β-CyD complex, FCZ in saline; for Mean Survival Days: 10 days observation; for Survival Number on Day 1 / Survival Number on Day 2 / Survival Number on Day 3 / Survival Number on Day 4 / Survival Number on Day 5 / Survival Number on Day 6 / Survival Number on Day 7 / Survival Number on Day 8 / Survival Number on Day 9 / Survival Number on Day 10: of 9 mice
Description: Candida albicans CAA-14 strain having been cultured at 30° C. for 24 hours was suspended in physiological saline, and the cell suspension (5×10^6 cells) was injected into the tail vein of a 5-week-old ICR male mouse (9 mice per group). Two days before the infection and on the day of the infection, 100 mg/kg of cyclophosphamide was intraperitoneally administered to each animal.
as §2

Candida albicans = assay: In vitro antifungal activity, MIC on mycelium formation; type: cell-based; conditions: 37° C., 24 hours, Eagle's MEM with 10% fetal bovine serum
Description: (§3) Candida albicans (10^2 cells) or Aspergillus fumigatus (10^3 cells) was inoculated to 200 μl of an Eagle's minimum essential medium containing 10% fetal bovine serum and a test compound shown in Table 2 below at a dilution increasing by a factor of 2. The system was incubated at 37° C. for 24 hours in a 5 v/v% CO2 stream to obtain the minimum inhibitory concentration (MIC) on mycelium formation.

Aspergillus fumigatus = assay: as above; type: cell-based; conditions: 37° C., 24 hours, Eagle's MEM with 10% fetal bovine serum
Description: as §3

[5] = Plasma level in dogs (HPLC); type: in vivo, beagles (dogs); conditions: dog; for concentration at 0.5 h / concentration at 1 h / concentration at 2 h / concentration at 3 h / concentration at 5 h / concentration at 8 h / concentration at 24 h: plasma
Description: Two beagles per group each received an oral preparation of an inclusion complex composed of the compound of Example 1 and maltosyl-β-cyclodextrin (G2 -β-CyD) at a dose of 10 mg of the compound of Example 1 per kg-b.w. or an intravenous injection of the inclusion complex at a dose of 5 mg of the compound of Example 1 per kg-b.w. For comparison, a suspension of the compound of Example 1 in 0.5% methyl cellulose (MC) was orally administered at a dose of 10 mg per kg-b.w. A-blood sample was taken at 0.5, 1, 2, 3, 5, 8, and 24 hours after administration. After deproteination, the concentration of the compound of formula (I) in the sample was determined by high performance liquid chromatography (HPLC).

Acute toxicity in mice = type: in vivo, ICR male mouse; conditions: 1000 mg/kg oral, in 0.5% MC, 5 mice per group, 7 days
[6] = iv, 5 mg/kg, G2-β-CyD inclusion complex
[7] = po, 10 mg/kg, G2-β-CyD inclusion complex
[8] = po, 10 mg/kg, suspension in 0.5% MC

OC(Cn1cncn1)(Cn1cncn1)c1ccc(F)cc1F [FCZ, fluconazole, reference compound]
Mean Survival Days ([1]; in 0.5% MC (ITZ: in PEG 400)): 2.0 days | Survival Number on Day 1 ([1]; in 0.5% MC (ITZ: in PEG 400)): 9 | Survival Number on Day 2 ([1]; in 0.5% MC (ITZ: in PEG 400)): 9 | Survival Number on Day 3 ([1]; in 0.5% MC (ITZ: in PEG 400)): 0 | Mean Survival Days [2]: 2.0 days | Survival Number on Day 1 ([2]; of 9 mice): 9 | Survival Number on Day 2 ([2]; of 9 mice): 9 | Survival Number on Day 3 ([2]; of 9 mice): 0 | manifestations of toxicity [3]: production of hepatomegaly and enlargement of the suprarenalcapsules, with the degree thereof depending on dosage | Mean Survival Days [4]: 6.3 days | Survival Number on Day 1 [4]: 9 | Survival Number on Day 2 [4]: 9 | Survival Number on Day 3 [4]: 8 | Survival Number on Day 4 [4]: 8 | Survival Number on Day 5 [4]: 8 | Survival Number on Day 6 [4]: 6 | Survival Number on Day 7 [4]: 3 | Survival Number on Day 8 [4]: 2 | Survival Number on Day 9 [4]: 2 | Survival Number on Day 10 [4]: 1

CC(C)(Sc1ccc(-n2cncn2)nn1)C(O)(Cn1cncn1)c1ccc(F)cc1F (single isomer, unassigned; (+)) [Example 1, (+)-2-(2,4-difluorophenyl)-3-methyl-1-(1H-1,2,4-triazol-1-yl)-3-(6-(1H-1,2,4-triazol-1-yl)pyridazin-3-ylthio)butan-2-ol]
Mean Survival Days ([1]; G2-β-CyD inclusion complex): > 10 days | Mean Survival Days ([1]; in 0.5% MC (ITZ: in PEG 400)): 5.9 days | Survival Number on Day 1 ([1]; G2-β-CyD inclusion complex): 9 | Survival Number on Day 2 ([1]; G2-β-CyD inclusion complex): 9 | Survival Number on Day 3 ([1]; G2-β-CyD inclusion complex): 9 | Survival Number on Day 4 ([1]; G2-β-CyD inclusion complex): 9 | Survival Number on Day 5 ([1]; G2-β-CyD inclusion complex): 9 | Survival Number on Day 6 ([1]; G2-β-CyD inclusion complex): 9 | Survival Number on Day 7 ([1]; G2-β-CyD inclusion complex): 9 | Survival Number on Day 8 ([1]; G2-β-CyD inclusion complex): 9 | Survival Number on Day 9 ([1]; G2-β-CyD inclusion complex): 9 | Survival Number on Day 10 ([1]; G2-β-CyD inclusion complex): 9 | Survival Number on Day 5 ([1]; in 0.5% MC): 5 | Survival Number on Day 6 ([1]; in 0.5% MC): 4 | Survival Number on Day 7 ([1]; in 0.5% MC): 4 | Survival Number on Day 8 ([1]; in 0.5% MC): 2 | Survival Number on Day 9 ([1]; in 0.5% MC): 2 | Survival Number on Day 10 ([1]; in 0.5% MC): 2 | Survival Number on Day 1 ([1]; in 0.5% MC (ITZ: in PEG 400)): 9 | Survival Number on Day 2 ([1]; in 0.5% MC (ITZ: in PEG 400)): 9 | Survival Number on Day 3 ([1]; in 0.5% MC (ITZ: in PEG 400)): 9 | Survival Number on Day 4 ([1]; in 0.5% MC (ITZ: in PEG 400)): 5 | Mean Survival Days [2]: > 9.0 days | Survival Number on Day 1 ([2]; of 9 mice): 9 | Survival Number on Day 2 ([2]; of 9 mice): 9 | Survival Number on Day 3 ([2]; of 9 mice): 9 | Survival Number on Day 4 ([2]; of 9 mice, G2-β-CyD complex): 9 | Survival Number on Day 5 ([2]; of 9 mice, G2-β-CyD complex): 8 | Survival Number on Day 6 ([2]; of 9 mice, G2-β-CyD complex): 8 | Survival Number on Day 7 ([2]; of 9 mice, G2-β-CyD complex): 8 | Survival Number on Day 8 ([2]; of 9 mice, G2-β-CyD complex): 7 | Survival Number on Day 9 ([2]; of 9 mice, G2-β-CyD complex): 7 | Survival Number on Day 10 ([2]; of 9 mice, G2-β-CyD complex): 7 | Mean Survival Days [4]: > 10.0 days | Survival Number on Day 1 [4]: 9 | Survival Number on Day 2 [4]: 9 | Survival Number on Day 3 [4]: 9 | Survival Number on Day 4 [4]: 9 | Survival Number on Day 5 [4]: 9 | Survival Number on Day 6 [4]: 9 | Survival Number on Day 7 [4]: 9 | Survival Number on Day 8 [4]: 9 | Survival Number on Day 9 [4]: 9 | Survival Number on Day 10 [4]: 9 | MIC on Mycelium Formation, C. albicans (Candida albicans): 0.05 µg/mL (≈ 0.112 µM) | MIC on Mycelium Formation, A. fumigatus (Aspergillus fumigatus): 3.13 µg/mL (≈ 7.04 µM) | absorption from the gastrointestinal tract ([5]; p.o., inclusion complex with cyclodextrin derivative vs MC suspension): markedly increased absorption from the gastrointestinal tract | concentration at 0.5 h [5, 6]: 4100 ng/mL | concentration at 1 h [5, 6]: 3400 ng/mL | concentration at 2 h [5, 6]: 2800 ng/mL | concentration at 3 h [5, 6]: 2000 ng/mL | concentration at 5 h [5, 6]: 1700 ng/mL | concentration at 8 h [5, 6]: 1300 ng/mL | concentration at 24 h [5, 6]: 300 ng/mL | concentration at 0.5 h [5, 7]: 2500 ng/mL | concentration at 1 h [5, 7]: 2800 ng/mL | concentration at 2 h [5, 7]: 2900 ng/mL | concentration at 3 h [5, 7]: 2600 ng/mL | concentration at 5 h [5, 7]: 2500 ng/mL | concentration at 8 h [5, 7]: 2200 ng/mL | concentration at 24 h [5, 7]: 700 ng/mL | concentration at 0.5 h [5, 8]: 300 ng/mL | concentration at 1 h [5, 8]: 300 ng/mL | concentration at 2 h [5, 8]: 300 ng/mL | concentration at 3 h [5, 8]: 200 ng/mL | concentration at 5 h [5, 8]: 400 ng/mL | concentration at 8 h [5, 8]: 300 ng/mL | concentration at 24 h [5, 8]: 200 ng/mL | life or death, acute toxicity (Acute toxicity in mice): No case of death
